{"source": "patent US20220249454A1", "about": "“INHIBITORS OF MONOCARBOXYLATE TRANSPORTERS FOR CANCER IMMUNOTHERAPY” (NIROGY THERAPEUTICS, INC., priority 2021, published 2022)"}
{"tested_on": "panel of solid and haemotological tumor cell lines (e.g., Hs578t, SiHa, MDA-MB-231)", "experiment": "MTS cell proliferation assay (cytotoxicity)", "type": "cell-based", "settings": "Table 1 (Group 1), 72-96 hours, 10 mM lactate medium or RPMI 1640 medium, cell line not stated", "experimental": "(§1) The anti-proliferation effect of MCT inhibition was investigated across a panel of solid and haemotological tumor cell lines. Cells were routinely cultured in their appropriate growth medium. On day 1, between 10,000-25,000 cells/well (e.g., Hs578t: 15,000 cells/well, SiHa: 10,000 cells/well, and MDA-MB-231: 25,000 cells/well) were plated into 96-well plates. 100 μL. of phosphate buffered saline solution was added to the external wells to prevent media evaporation. Plates were incubated in growth medium overnight at 37° C. in the presence of 5% CO2. On day 2, dry weight compound stocks were dissolved to a concentration of 10 mM in 100% DMSO. Compounds were further diluted in the assay medium; 10 mM lactate medium (without glucose, pyruvate, and glutamine) or RPMI 1640 medium (without pyruvate and glutamine) to generate a final dose range of 1 nM to 10 μM. Growth medium in the 96-well plate was replaced with the assay medium (10 mM lactate medium or RPMI medium or appropriate medium), and compounds were added to each well in the plate at different concentrations via serial dilution or pre-prepared solutions in assay medium. Plates were then incubated at 37° C. in the presence of 5% CO2 for a further 72-96 hours. On day 2-5, assay media was changed to 100 uL of DMEM/F12 and 20 μL of CellTiter 96 AQ MTS reagent was added to each well and the plate was returned to the incubator for 1-2 hours. MTS is bioreduced by NADPH or NADH produced by dehydrogenase enzymes in metabolically active cells into a coloured formazan product that is soluble in tissue culture medium. The amount of coloured formazan product is directly proportional to the number of living cells in culture. The absorbance of the plates was read on a Spectramax M5e plate reader using […] measurement wavelength. Dose response curves were plotted and IC50 values were calculated using GraphPad Prism. The IC50 value is equivalent to the concentration of compound that causes 50% inhibition of growth calculated from the compound treated signal to the vehicle treated signal.\n(§2) Cytotoxicity of selected compounds is listed in Table 1, where IC50: A=<1 uM; B=1-10 uM; C=>10 uM; and NT=Not Tested.", "units": {"IC50": "µM"}}
{"smiles": "CN(Cc1cccc(F)c1)c1cc2oc(=O)c(C(=O)O)cc2s1", "note": "[Compound 1.003, 2-((3-fluorobenzyl)(methyl)amino)-5-oxo-5H-thieno[3,2-b]pyran-6-carboxylic acid]", "IC50": "< 1"}
{"smiles": "COc1cccc(CN(C)c2cc3oc(=O)c(C(=O)O)cc3s2)c1", "note": "[Compound 1.004, 2-((3-methoxybenzyl)(methyl)amino)-5-oxo-5H-thieno[3,2-b]pyran-6-carboxylic acid]", "IC50": "< 1"}
{"smiles": "CN(CC1CCCCC1)c1cc2oc(=O)c(C(=O)O)cc2s1", "note": "[Compound 1.005, 2-((cyclohexylmethyl)(methyl)amino)-5-oxo-5H-thieno[3,2-b]pyran-6-carboxylic acid]", "IC50": "< 1"}
{"smiles": "CN(Cc1cccc(C(F)(F)F)c1)c1cc2oc(=O)c(C(=O)O)cc2s1", "note": "[Compound 1.006, 2-(methyl(3-(trifluoromethyl)benzyl)amino)-5-oxo-5H-thieno[3,2-b]pyran-6-carboxylic acid]", "IC50": "< 1"}
{"smiles": "CN(Cc1cc(C(F)(F)F)cc(C(F)(F)F)c1)c1cc2oc(=O)c(C(=O)O)cc2s1", "note": "[Compound 1.007, 2-((3,5-bis(trifluoromethyl)benzyl)(methyl)amino)-5-oxo-5H-thieno[3,2-b]pyran-6-carboxylic acid]", "IC50": "< 1"}
{"smiles": "CN(CC1CCOCC1)c1cc2oc(=O)c(C(=O)O)cc2s1", "note": "[Compound 1.008, 2-(methyl((tetrahydro-2H-pyran-4-yl)methyl)amino)-5-oxo-5H-thieno[3,2-b]pyran-6-carboxylic acid]", "IC50": "< 1"}
{"smiles": "CN(C(=O)C1CCCCC1)c1cc2oc(=O)c(C(=O)O)cc2s1", "note": "[Compound 1.010, 2-(N-methylcyclohexanecarboxamido)-5-oxo-5H-thieno[3,2-b]pyran-6-carboxylic acid]", "IC50": "< 1"}
{"smiles": "CN(C(=O)c1ccc(F)cc1)c1cc2oc(=O)c(C(=O)O)cc2s1", "note": "[Compound 1.011, 2-(4-fluoro-N-methylbenzamido)-5-oxo-5H-thieno[3,2-b]pyran-6-carboxylic acid]", "IC50": "< 1"}
{"smiles": "CN1CCC(CN(C)c2cc3oc(=O)c(C(=O)O)cc3s2)CC1", "note": "[Compound 1.012, 2-(methyl((1-methylpiperidin-4-yl)methyl)amino)-5-oxo-5H-thieno[3,2-b]pyran-6-carboxylic acid]", "IC50": "< 1"}
{"smiles": "CN(Cc1cccnc1)c1cc2oc(=O)c(C(=O)O)cc2s1", "note": "[Compound 1.013, 2-(methyl(pyridin-3-ylmethyl)amino)-5-oxo-5H-thieno[3,2-b]pyran-6-carboxylic acid]", "IC50": "< 1"}
{"smiles": "CN(Cc1cccs1)c1cc2oc(=O)c(C(=O)O)cc2s1", "note": "[Compound 1.014, 2-(methyl(thiophen-2-ylmethyl)amino)-5-oxo-5H-thieno[3,2-b]pyran-6-carboxylic acid]", "IC50": "< 1"}
{"smiles": "CN(C(=O)c1cccc(C(F)(F)F)c1)c1cc2oc(=O)c(C(=O)O)cc2s1", "note": "[Compound 1.015, 2-[Methyl-(3-trifluoromethyl-benzoyl)-amino]-5-oxo-5H-thieno[3,2-b]pyran-6-carboxylic acid]", "IC50": "< 1"}
{"smiles": "COc1ccc(C(=O)N(C)c2cc3oc(=O)c(C(=O)O)cc3s2)cc1", "note": "[Compound 1.016, 2-[(4-Methoxy-benzoyl)-methyl-amino]-5-oxo-5H-thieno[3,2-b]pyran-6-carboxylic acid]", "IC50": "< 1"}
{"smiles": "CN(C(=O)C1CCOCC1)c1cc2oc(=O)c(C(=O)O)cc2s1", "note": "[Compound 1.018, 2-[Methyl-(tetrahydro-pyran-4-carbonyl)-amino]-5-oxo-5H-thieno[3,2-b]pyran-6-carboxylic acid]", "IC50": "< 1"}
{"smiles": "COc1cc(C(=O)N(C)c2cc3oc(=O)c(C(=O)O)cc3s2)ccc1F", "note": "[Compound 1.019, 2-[(4-Fluoro-3-methoxy-benzoyl)-methyl-amino]-5-oxo-5H-thieno[3,2-b]pyran-6-carboxylic acid]", "IC50": "< 1"}
{"smiles": "CN(C(=O)c1ccc(C(F)(F)F)cc1)c1cc2oc(=O)c(C(=O)O)cc2s1", "note": "[Compound 1.020, 2-[Methyl-(4-trifluoromethyl-benzoyl)-amino]-5-oxo-5H-thieno[3,2-b]pyran-6-carboxylic acid]", "IC50": "< 1"}
{"smiles": "COc1ccc(CN(C)c2cc3oc(=O)c(C(=O)O)cc3s2)cc1", "note": "[Compound 1.021, 2-[(4-Methoxy-benzyl)-methyl-amino]-5-oxo-5H-thieno[3,2-b]pyran-6-carboxylic acid]", "IC50": "< 1"}
{"smiles": "COc1ccccc1CN(C)c1cc2oc(=O)c(C(=O)O)cc2s1", "note": "[Compound 1.022, 2-[(2-Methoxy-benzyl)-methyl-amino]-5-oxo-5H-thieno[3,2-b]pyran-6-carboxylic acid]", "IC50": "< 1"}
{"smiles": "CN(Cc1ccc(C(F)(F)F)cc1)c1cc2oc(=O)c(C(=O)O)cc2s1", "note": "[Compound 1.023, 2-[Methyl-(4-trifluoromethyl-benzyl)-amino]-5-oxo-5H-thieno[3,2-b]pyran-6-carboxylic acid]", "IC50": "< 1"}
{"smiles": "COc1cccc(S(=O)(=O)N(C)c2cc3oc(=O)c(C(=O)O)cc3s2)c1", "note": "[Compound 1.024, 2-[(3-Methoxy-benzenesulfonyl)-methyl-amino]-5-oxo-5H-thieno[3,2-b]pyran-6-carboxylic acid]", "IC50": "< 1"}
{"smiles": "COc1ccc(S(=O)(=O)N(C)c2cc3oc(=O)c(C(=O)O)cc3s2)cc1", "note": "[Compound 1.025, 2-[(4-Methoxy-benzenesulfonyl)-methyl-amino]-5-oxo-5H-thieno[3,2-b]pyran-6-carboxylic acid]", "IC50": "< 1"}
{"smiles": "CN(c1cc2oc(=O)c(C(=O)O)cc2s1)S(=O)(=O)c1ccc(F)cc1", "note": "[Compound 1.026, 2-[(4-Fluoro-benzenesulfonyl)-methyl-amino]-5-oxo-5H-thieno[3,2-b]pyran-6-carboxylic acid]", "IC50": "< 1"}
{"smiles": "CN(c1cc2oc(=O)c(C(=O)O)cc2s1)S(=O)(=O)c1ccc(C(F)(F)F)cc1", "note": "[Compound 1.027, 2-[Methyl-(4-trifluoromethyl-benzenesulfonyl)-amino]-5-oxo-5H-thieno[3,2-b]pyran-6-carboxylic acid]", "IC50": "< 1"}
{"smiles": "CN(c1cc2oc(=O)c(C(=O)O)cc2s1)S(=O)(=O)c1cccc(C(F)(F)F)c1", "note": "[Compound 1.028, 2-[Methyl-(3-trifluoromethyl-benzenesulfonyl)-amino]-5-oxo-5H-thieno[3,2-b]pyran-6-carboxylic acid]", "IC50": "< 1"}
{"smiles": "O=C(O)c1cc2sccc2oc1=O", "note": "[Compound 1.029, 5-oxo-5H-thieno[3,2-b]pyran-6-carboxylic acid]", "IC50": "1 to 10"}
{"tested_on": "panel of solid and haemotological tumor cell lines (e.g., Hs578t, SiHa, MDA-MB-231)", "experiment": "MTS cell proliferation assay (cytotoxicity)", "type": "cell-based", "settings": "Table 2 (Group 2), 72-96 hours, 10 mM lactate medium or RPMI 1640 medium, cell line not stated", "experimental": "as §1, §2", "units": {"IC50": "µM"}}
{"smiles": "CN(C(=O)Nc1ccccc1Cl)c1cc2oc(=O)c(C(=O)O)cc2s1", "note": "[Compound 2.001, 2-(3-(2-chlorophenyl)-1-methylureido)-5-oxo-5H-thieno[3,2-b]pyran-6-carboxylic acid]", "IC50": "< 1"}
{"smiles": "COc1ccccc1NC(=O)N(C)c1cc2oc(=O)c(C(=O)O)cc2s1", "note": "[Compound 2.002, 2-(3-(2-methoxyphenyl)-1-methylureido)-5-oxo-5H-thieno[3,2-b]pyran-6-carboxylic acid]", "IC50": "< 1"}
{"smiles": "COc1cccc(NC(=O)N(C)c2cc3oc(=O)c(C(=O)O)cc3s2)c1", "note": "[Compound 2.003, 2-(3-(3-methoxyphenyl)-1-methylureido)-5-oxo-5H-thieno[3,2-b]pyran-6-carboxylic acid]", "IC50": "< 1"}
{"smiles": "CN(C(=O)Nc1ccc(Cl)cc1)c1cc2oc(=O)c(C(=O)O)cc2s1", "note": "[Compound 2.004, 2-(3-(4-chlorophenyl)-1-methylureido)-5-oxo-5H-thieno[3,2-b]pyran-6-carboxylic acid]", "IC50": "< 1"}
{"smiles": "CN(C(=O)Nc1ccc(F)cc1)c1cc2oc(=O)c(C(=O)O)cc2s1", "note": "[Compound 2.005, 2-(3-(4-fluorophenyl)-1-methylureido)-5-oxo-5H-thieno[3,2-b]pyran-6-carboxylic acid]", "IC50": "< 1"}
{"smiles": "COc1ccc(NC(=O)N(C)c2cc3oc(=O)c(C(=O)O)cc3s2)cc1OC", "note": "[Compound 2.006, 2-(3-(3,4-dimethoxyphenyl)-1-methylureido)-5-oxo-5H-thieno[3,2-b]pyran-6-carboxylic acid]", "IC50": "< 1"}
{"smiles": "CN(C(=O)NC1CCCCC1)c1cc2oc(=O)c(C(=O)O)cc2s1", "note": "[Compound 2.007, 2-(3-cyclohexyl-1-methylureido)-5-oxo-5H-thieno[3,2-b]pyran-6-carboxylic acid]", "IC50": "< 1"}
{"smiles": "COc1ccc(NC(=O)N(C)c2cc3oc(=O)c(C(=O)O)cc3s2)cc1", "note": "[Compound 2.008, 2-(3-(4-methoxyphenyl)-1-methylureido)-5-oxo-5H-thieno[3,2-b]pyran-6-carboxylic acid]", "IC50": "< 1"}
{"smiles": "CCOc1cccc(NC(=O)N(C)c2cc3oc(=O)c(C(=O)O)cc3s2)c1", "note": "[Compound 2.009, 2-(3-(3-ethoxyphenyl)-1-methylureido)-5-oxo-5H-thieno[3,2-b]pyran-6-carboxylic acid]", "IC50": "< 1"}
